Key:
aurora-2 kinase = target: T1, aurora-2 kinase (Homo sapiens, UniProt O14965); assay: aurora-2 kinase inhibition assay (Kinase-Glo, ATP remaining); type: biochemical; conditions: Example 54, Table 8; 3 μM ATP; read-out: Aurora-2 Inhibition, IC50
T1 construct: purchased Upstate, Lake Placid, N.Y; host or cells: sf9 cells
T1 sequence (O14965 1-403): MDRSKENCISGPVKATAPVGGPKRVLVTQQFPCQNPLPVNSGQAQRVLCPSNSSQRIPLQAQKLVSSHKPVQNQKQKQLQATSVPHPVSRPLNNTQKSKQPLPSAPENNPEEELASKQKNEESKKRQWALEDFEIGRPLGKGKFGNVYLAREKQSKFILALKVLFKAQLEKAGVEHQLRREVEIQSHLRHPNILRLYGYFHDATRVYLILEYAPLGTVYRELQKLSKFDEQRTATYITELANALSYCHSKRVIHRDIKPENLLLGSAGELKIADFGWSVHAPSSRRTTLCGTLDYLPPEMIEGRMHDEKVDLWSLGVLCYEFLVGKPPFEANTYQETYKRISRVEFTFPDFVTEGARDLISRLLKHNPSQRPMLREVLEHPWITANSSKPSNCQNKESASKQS
Description: (§1) In this assay kinase activity was determined by quantifying the amount of ATP remaining in solution following a kinase reaction by measuring the light units (LU) produced by luciferase using a luminometer. Percent inhibition was determined for individual compounds by comparing luminometer readings of drug-treated reactions to controls containing no drug (DMSO control) and no Aurora-2 enzyme (ATP control) in the following equation: […]
(§2) In a 50 μl reaction, recombinant aurora-2 kinase produced in sf9 cells (Upstate, Lake Placid, N.Y.) was incubated at 30° C. for two hours with 62.5 μM Kemptide (Calbiochem, San Diego, Calif.), 3 μM ATP (Invitrogen, Carlsbad, Calif.) and kinase reaction buffer (40 mM Tris-HCl, 10 mM MgCl2 and 0.1 μg/μl bovine serum albumin (BSA)). This reaction was carried out in the presence of drug substances, which had been previously diluted to desired concentrations in DMSO. After incubation, 50 μl of Kinase-Glo® (Promega, Inc., Madison, Wis.) solution was added to each reaction mixture and allowed to equilibrate for 10 minutes at room temperature. Kinase-Glo solution contains luciferase enzyme and luciferin, which react with ATP to produce light. Kinase activity is determined by quantifying the amount of ATP remaining in solution following the kinase reaction by measuring the light units (LU) produced by luciferase using a luminometer (Thermo-Electron, Vantaa, Finland).
as §1, with “Briefly,” for “In this assay”
as §2, with “μg/Il” for “μg/μl”
as §1, with “Illustrative compounds 2-3, 2-5, 2-7, 2-4 and 2-9 were evaluated in an aurora-2 kinase inhibition assay. In” for “In”

[1] = target: T2, phosphorylated Axl in MDA-MB-231 breast carcinoma cells (Homo sapiens, UniProt P30530); assay: Axl autophosphorylation sandwich ELISA in cells; type: cell-based; conditions: 10 uM, 48 hours
T2 construct: endogenous in cells; host or cells: MDA-MB-231 breast carcinoma cells
T2 sequence (P30530 26-894): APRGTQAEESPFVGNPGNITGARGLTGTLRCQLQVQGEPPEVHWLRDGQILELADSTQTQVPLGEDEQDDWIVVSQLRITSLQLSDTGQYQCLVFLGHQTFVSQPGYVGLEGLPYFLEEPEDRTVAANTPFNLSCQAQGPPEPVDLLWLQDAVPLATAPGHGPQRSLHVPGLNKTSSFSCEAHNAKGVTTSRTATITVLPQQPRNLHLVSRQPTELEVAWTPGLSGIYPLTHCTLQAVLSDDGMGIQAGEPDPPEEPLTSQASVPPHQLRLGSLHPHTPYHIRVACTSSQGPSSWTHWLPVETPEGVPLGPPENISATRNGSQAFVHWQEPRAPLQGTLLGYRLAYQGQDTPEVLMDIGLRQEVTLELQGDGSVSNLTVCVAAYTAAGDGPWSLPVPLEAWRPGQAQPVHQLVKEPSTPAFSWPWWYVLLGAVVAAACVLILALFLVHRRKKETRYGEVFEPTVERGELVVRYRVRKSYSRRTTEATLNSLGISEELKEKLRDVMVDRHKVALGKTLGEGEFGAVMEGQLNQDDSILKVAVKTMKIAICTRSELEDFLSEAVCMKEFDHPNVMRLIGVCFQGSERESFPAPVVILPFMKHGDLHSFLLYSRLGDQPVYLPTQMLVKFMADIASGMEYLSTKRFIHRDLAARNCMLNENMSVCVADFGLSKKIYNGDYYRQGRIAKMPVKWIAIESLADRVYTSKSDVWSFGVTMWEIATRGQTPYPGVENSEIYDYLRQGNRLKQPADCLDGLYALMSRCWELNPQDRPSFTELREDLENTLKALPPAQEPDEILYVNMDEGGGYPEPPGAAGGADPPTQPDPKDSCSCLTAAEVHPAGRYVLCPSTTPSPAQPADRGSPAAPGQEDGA
Description: Compound 2-11 was examined in a cell-based assay to determine its ability to reduce the activity of the Axl kinase enzyme in cell culture. Axl, like many receptor tyrosine kinases, autophosphorylates in response to growth factor stimulation. Briefly, MDA-MB-231 breast carcinoma cells were plated in 25 cm^2 tissue culture flasks and incubated in the presence of varying concentrations of Compound 2-11 for 48 hours. Following incubation, cells were lysed and the presence of phosphorylated Axl was detected using a commercially available sandwich ELISA assay kit (R&D Systems Inc.). […] For example, at concentrations as low as 10 uM, levels of phosphorylated Axl were reduced to less than 50% of those observed for untreated control samples.

[2] = tested on: MDA-MB-231 breast carcinoma cells; assay: cell proliferation assay (Cell-Titer-Glo), MDA-MB-231; type: cell-based; conditions: Homo sapiens, Example 65, 96 hours, read-out: IC50 (reduce cell number to 50% of untreated controls)
Description: Cell culture-based assays can be used to evaluate the ability of compounds of the invention to inhibit one or more cellular activities, such as cancer cell growth and/or survival. Numerous cancer cell lines can be obtained from the American Type Culture Collection (ATCC) and other sources. Briefly, cells are seeded into 96-well, tissue-culture treated, opaque white plates (Thermo Electron, Vantaa, Finland), at between 5000 and 10000 cells per well, depending on the speed of cell proliferation, in 100 μl of appropriate growth medium (determined by the ATCC). Cells are then exposed to the appropriate concentration of drug or an equal amount of DMSO (drug diluent) and allowed to grow in its presence for 96 hours. Following this, 100 μl of Cell-Titer-Glo reagent (Promega, Inc., Madison, Wis.) is added to each well. Plates are then shaken for 2 minutes at room temperature to allow for cell lysis and incubated for 10 minutes to stabilize the luminescent signal. Similar to the Kinase-Glo assay reagent from Promega, this reagent contains both luciferase enzyme and its substrate luciferin. Luciferase, activated by ATP in the cell lysate, catalyzes the conversion of luciferin to oxyluciferin, a reaction which produces light. The amount of light produced is proportionate to the amount of ATP in the cell lysate, which is itself proportional to cell number and gives an index of cellular proliferation.
Compound 1-1 and Compound 2-11 were tested in a cell proliferation assay to determine potency in a cell-based assay format. Briefly, MDA-MB-231 breast carcinoma cells were inoculated onto 96-well plates and incubated in the presence of compounds for 96 hours. Following incubation, cells were lysed and ATP content used as a surrogate for cell number, using the Cell-Titer-Glo Luminescent Cell Viability Assay Kit (Promega Corp.). IC50 values, representing the concentration required to reduce cell number to 50% of untreated controls, were determined to be 20 uM for Compound 1-1 and 10 uM for Compound 2-11.

[3] = tested on: Granta-22 lymphoma cell line; assay: lymphoma cell number reduction, Granta-22; type: cell-based; conditions: 48 hours; read-out: IC50 Values Granta-22, single agent
Description: (§3) New IC50 values were calculated for the second agent in an effort to determine whether or not pretreatment with one compound would increase sensitivity to the other. As set forth in the table below, compound 2-3 pretreatment led to an increased sensitivity to Taxol®, however Taxol® pretreatment appeared to be […] to compound 2-3 in this assay.

[4] = tested on: Granta-4 lymphoma cell line; assay: lymphoma cell number reduction, Granta-4; type: cell-based; conditions: 48 hours; read-out: IC50 Values Granta-4, single agent
Description: as §3

Question: Which IC50 (aurora-2 kinase) does the source give for COc1cc2[nH]c3ncnc(N4CCN(C(=S)Nc5ccc(S(=O)(=O)Nc6ccc(C(F)(F)F)cc6)cc5)CC4)c3c2cc1OC [Compound 2-4, 4-(6,7-dimethoxy-9H-pyrimido[4,5-b]indol-4-yl)-N-(4-(N-(4-trifluoronethylhenyl)sulfamoyl)phenyl)piperazine-1-carbothioamide] here?
Answer: 153 nM

Question: For CCc1nnc(NS(=O)(=O)c2ccc(NC(=S)N3CCN(c4ncnc5[nH]c6ccc(Cl)cc6c45)CC3)cc2)s1 [Compound 2-11], which “levels of phosphorylated Axl relative to untreated control samples” value [1] is on record?
Answer: less than 50%

Question: What about the IC50 [2] of the same molecule?
Answer: 10000 nM

Question: How did the IC50 [3] turn out when CC(=O)O[C@H]1C(=O)[C@@]2(C)[C@H]([C@H](OC(=O)c3ccccc3)[C@]3(O)C[C@H](OC(=O)[C@H](O)[C@@H](NC(=O)c4ccccc4)c4ccccc4)C(C)=C1C3(C)C)[C@]1(OC(C)=O)CO[C@@H]1C[C@@H]2O [Taxol ®, reference compound] was run?
Answer: 2720 nM

Question: And the IC50 [4]?
Answer: 301 nM
